Measurements reported in US11331301B2, “Compositions and methods for treating cancer” (The State of Israel, Ministry of Agriculture & Rural …, priority 2017, dated 2022).

Key:
Assay type in all cases: cell-based
HCT116 cells = test: Cytotoxic activity with CB1, CB2 and GPR55 receptor antagonists, Alamar Blue; conditions: THCA 0.12 mM
Description: FIGS. 12A-C depict the determination of HCT116 cell viability using Alamar Blue fluorescence (Resazurin assay) as a function of cytotoxic effect. HCT116 cells were seeded (50,000 per well) in triplicate in 500 μL growing media and incubated for 24 h at 37° C. in a humidified 5% CO2-95% air atmosphere. […] Non-treated are the cells without TNF-α and treatments. Relative fluorescence at the excitation/emission of 544/590 nm was measured. Values were calculated as percentage of live cells relative to the non-treated (cells without TNF-α and treatments) control after reducing the autofluorescence of Alamar Blue without cells.
FIG. 12D depicts determination of HCT116 cell viability using Alamar Blue fluorescence (resazurin assay) as a function of cytotoxic effect. HCT116 cells were seeded (50,000 per well) in triplicate in 500 μL growing media and incubated for 24 hours at 37° C. in a humidified 5% CO2-95% air atmosphere. […] Treatments with F7, F1-F9, and combination of fractions without antagonists served as a positive control (Con). Non-treated are the cells without TNF-α and treatments. […] Relative fluorescence at the excitation/emission of 544/590 nm was measured. Values were calculated as percentage of live cells relative to the non-treated (cells without TNF-α and treatments) control after reducing the autofluorescence of Alamar Blue without cells. […]

CB2 = test: Relative gene expression by qPCR after TNF-α; conditions: HCT-116; overnight TNF-α; versus GAPDH, 2-ΔΔCT; treated versus non-treated cells
Excerpt: (§1) Transcripts for CB1, CB2 and GPR55 were detected by qPCR in HCT116 cells.

CB1 = test: Relative gene expression by qPCR after TNF-α; conditions: HCT-116; overnight TNF-α; versus GAPDH, 2-ΔΔCT; treated versus non-treated cells
Excerpt: as §1

GPR55 = test: Relative gene expression by qPCR after TNF-α; conditions: HCT-116; overnight TNF-α; versus GAPDH, 2-ΔΔCT; treated versus non-treated cells
Excerpt: as §1

| Compound | effect of CB2 antagonist (SR144528) on cytotoxic activity (HCT116 cells; C2F 0.2 mg/mL, F7 0.08 mg/mL) | effect of CB1 antagonist (Rimonabant) on cytotoxic activity (HCT116 cells) | Mean relative expression of CB2 (CB2) | Mean relative expression of CB1 (CB1) | Mean relative expression of GPR55 (GPR55) |
| --- | --- | --- | --- | --- | --- |
| CCCCCc1cc2c(c(O)c1C(=O)O)[C@@H]1C=C(C)CC[C@H]1C(C)(C)O2 [THCA, tetrahydrocannabinolic acid] | significant reduction in cytotoxic activity | significant reduction in cell cytotoxic activities |  |  |  |
| TNF-α |  |  | 5.84 | 1.31 | 5.26 |
